The test system of test [1] is HepG2 liver cancer cells. Put plainly: PARP cleavage and caspase-8 activation with TNFα by immunoblotting. Format: cell-based. Conditions: HepG2 cells, SR11237 1 μM, 1 hr pretreatment. The protocol: ZR-75-1 cells were treated with TNFα and/or Sulindac (75 μM) or K-80003 (50 μM) for 6 hr and analyzed by immunoblotting.
HepG2 cells cultured in medium with 1% FBS were treated with SR11237 (1 μM) for 1 hr, then TNFα (10 ng/ml) and/or Sulindac (75 μM) for 4 hr, and analyzed by immunoblotting. HepG2 cells transfected with control or RXRα siRNA were treated with TNFα and/or Sulindac and analyzed by immunoblotting.

The test system of test [2] is COX. Conditions: Haanen, 2001; cited from earlier work.

The source of these data is patent publication US10087156B2, “Methods and compositions related to retinoid receptor-selective pathway” (Sanford Burnham Prebys Medical Discovery Institute, priority 2010, dated 2018).

Molecules are shown by their SMILES.

As to `CC1(C)CCC(C)(C)c2cc(C3(c4ccc(C(=O)O)cc4)OCCO3)ccc21` [SR11237], in test [1], the “suppression of the apoptotic effect of Sulindac/TNFα combination” value was “partially suppressed”.

Take `CC1=C(CC(=O)O)c2cc(F)ccc2/C1=C\c1ccc(S(C)(=O)=O)cc1` [sulindac sulfone]: the COX-inhibiting activity entry in test [2] is listed as “no COX-inhibiting activity”.

`CC1=C(CC(=O)O)c2cc(F)ccc2/C1=C/c1ccc([S+](C)[O-])cc1` (stereo not drawn) [sulindac sulfoxide]: the COX-inhibiting activity result in test [2] is listed as “no COX-inhibiting activity”.
